Among the data in BindingDB's records for doi:10.1016/j.ejmech.2018.10.033 (Key Laboratory of Molecular Pharmacology and Drug …, 2019) are IC50 values, retold here.

Data set [1] is described as follows: Reversal of P-gp-mediated drug resistance in human KBV cells assessed as potentiation of paclitaxel-induced cytotoxicity by measuring paclitaxel IC50 at 5 uM after 24 hrs by MTT assay (Rvb = 3837.57 uM). Background: Tetrazolium assays rely on reduction of a dye to a coloured formazan, in cell work by metabolically active cells.
Data set [2] can be described thus: Reversal of P-gp-mediated drug resistance in human KBV cells assessed as potentiation of paclitaxel-induced cytotoxicity by measuring paclitaxel IC50 at 10 uM after 72 hrs by MTT assay (Rvb = 398.34 +/- 0.58 uM).
Data set [3] can be described thus: Reversal of P-gp-mediated drug resistance in human KBV cells assessed as potentiation of paclitaxel-induced cytotoxicity by measuring paclitaxel IC50 at 10 uM after 24 hrs by MTT assay (Rvb = 3837.57 uM).
A short description of data set [4]: Reversal of P-gp-mediated drug resistance in human KBV cells assessed as potentiation of paclitaxel-induced cytotoxicity by measuring paclitaxel IC50 at 10 uM after 48 hrs by MTT assay (Rvb = 1396.57 uM).
The nature of data set [5]: Reversal of P-gp-mediated drug resistance in human KBV cells assessed as potentiation of paclitaxel-induced cytotoxicity by measuring paclitaxel IC50 at 5 uM after 72 hrs by MTT assay (Rvb = 398.34 +/- 0.58 uM).
Data set [6] can be described thus: Reversal of P-gp-mediated drug resistance in human KBV cells assessed as potentiation of paclitaxel-induced cytotoxicity by measuring paclitaxel IC50 at 5 uM after 48 hrs by MTT assay (Rvb = 1396.57 uM).
Data set [7] can be described thus: Reversal of P-gp-mediated drug resistance in human KBV cells assessed as potentiation of paclitaxel-induced cytotoxicity by measuring paclitaxel IC50 at 10 uM.

A word on the IC50: it is the concentration that gives 50% inhibition.

`CN(C)CCCOC(=O)[C@]12CCC(C)(C)C[C@H]1C1=CC[C@@H]3[C@@]4(C)Cc5nccnc5[C@@](C)(CO)[C@@H]4CC[C@@]3(C)[C@]1(C)CC2`: the half-maximal inhibitory concentration (IC50) in data set [1] stood at 49.8 nM; in data set [2] it was 1.59 nM; in data set [3], 35 nM; in data set [4], 17.2 nM; in data set [5], 12.3 nM; in data set [6] it was 21.2 nM.

On to `CC1(C)CC[C@]2(C(=O)OCc3ccccc3)CC[C@]3(C)C(=CC[C@@H]4[C@@]5(C)Cc6nccnc6[C@@](C)(CO)[C@@H]5CC[C@]43C)[C@@H]2C1`, for which the half-inhibitory concentration (IC50) in data set [7] amounted to 2.4 nM.
